Source: patent US20040122076A1, “Sulphonamides for the treatment of central nervous system diseases” (priority 2000, published 2004)

Target: T1, human recombinant 5-HT6 receptors (Homo sapiens, UniProt P50406)
T1 construct: purchased Receptor Biology, Inc., Beltsville Md; 20705, USA RB-HS6; host or cells: HEK293 cells (membranes)
Experiment: Binding to human recombinant 5-HT6 receptors ([3H]-LSD displacement, HEK293 membranes)
Conditions: [3H]-LSD 1 nM, membranes of HEK293 cells, 1 hour at 37° C.; Ki=IC50/(1+L/KD)
Description: 1. Binding to Human Recombinant 5-HT6 Receptors
The binding of the compounds according to the invention to human recombinant 5-HT6 receptors can be determined as follows. Membranes of HEK293 cells which express human recombinant 5-HT6 receptors (RB-HS6, Receptor Biology, Inc., Beltsville Md. 20705, USA) were suspended in the ratio 1:40 in ice-cold sample buffer consisting of 50 mM tris HCl, 5 mM MgCl2, 0.5 mM EDTA; 0.1% ascorbic acid and 10 μM pargyline (pH 7.4) and homogenized (Polytron). 100 μl of membrane suspension, 50 μl of [^3H]-LSD (specific activity 75 Ci/mmol, final concentration […]) and 50 μl of test substance solution (8 different concentrations, 10^−5 to 10^−9 M) were incubated for 1 hour at 37° C. and the [^3H]-LSD bound to the receptor was then separated from the free [^3H]-LSD by filtration. The radioactivity retained by the filter was determined by scintillation spectroscopy. All tests were carried out in triplicate determinations. The IC50 values were calculated using the program GraphPadPrism (Hill equation, special: one-site competition). The inhibition constant of the test substance Ki was determined from the IC50 value of the compounds (concentration of the test substance at which 50% of the ligand bound to the receptor is displaced), the dissociation constant KD and the concentration L of [^3H]-LSD (Ki=IC50/(1+L/KD)).

T1 sequence (P50406 whole entry): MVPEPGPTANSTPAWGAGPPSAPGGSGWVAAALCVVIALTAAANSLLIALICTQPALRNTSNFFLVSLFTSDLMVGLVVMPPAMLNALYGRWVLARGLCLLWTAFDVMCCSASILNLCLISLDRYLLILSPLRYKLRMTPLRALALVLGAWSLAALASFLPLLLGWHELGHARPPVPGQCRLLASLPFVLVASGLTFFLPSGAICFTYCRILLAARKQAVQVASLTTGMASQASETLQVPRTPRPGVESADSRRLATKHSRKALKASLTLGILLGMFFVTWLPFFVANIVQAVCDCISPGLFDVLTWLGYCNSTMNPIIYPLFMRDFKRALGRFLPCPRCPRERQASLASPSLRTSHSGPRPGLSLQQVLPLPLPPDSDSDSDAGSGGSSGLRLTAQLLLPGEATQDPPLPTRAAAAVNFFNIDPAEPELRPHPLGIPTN

With `CCn1ccc2ccc(S(=O)(=O)Nc3cccc(NC(=O)C(C)(C)C)c3)cc21` [Example 44] as the compound, how does the Ki read?
Its Ki is 12 nM.
